Laboratory results: patent publication US6740521B2, “High-sensitive detection of environmental pollutants” (priority 2001, dated 2004)
Where two headings read alike, the source gives them in different places.

Test system: CHO 2F1813 cells
Format: cell-based, Chinese hamster
[1] = 2F1813 strain compared with SV40-promoter control strain 5K95, FIG. 3 to FIG. 6

## C1COCCO1 [1,4-Dioxane]
  Fluorescence value (β-galactosidase inducing activity): 0˜27 RU

## [Cd] [Cadmium]
[1]
  Induction of the β-galactosidase activity expression: observed only in the 2F1813 stain

## CCCCC(CC)COC(=O)c1ccccc1C(=O)OCC(CC)CCCC (stereo not shown) [Di(ethylhexyl)phthalate]
[1]
  Induction of the β-galactosidase activity expression: observed only in the 2F1813 stain

## [Ni] [Nickel]
  Fluorescence value (β-galactosidase inducing activity): 1.3˜18 RU
  Induction of the β-galactosidase activity expression: observed only in the 2F1813 stain

## Clc1ccccc1Cl [o-Dichlorobenzene]
[1]
  Induction of the β-galactosidase activity expression: observed only in the 2F1813 stain

## Nonylphenol A
[1]
  Induction of the β-galactosidase activity expression: observed only in the 2F1813 stain
